Test [1] deals with Cannabinoid receptor 1 (Homo sapiens, UniProt P21554). Description: Agonist activity at CB1R (unknown origin) CHO cells stably expressing Galpha16 assessed as increase in intracellular calcium level by microplate reader based assay. The class given is functional, cell-based.
The target in test [2] is T1, Cannabinoid receptor 2 (Homo sapiens, UniProt P34972). The experiment in a line: Agonist activity at CB2R (unknown origin) CHO cells stably expressing Galpha16 assessed as increase in intracellular calcium level by microplate reader based assay. The format is functional, cell-based. Background: Calcium flux is commonly read through the fluorescence of an indicator in the cells.
T1 sequence (P34972 whole entry): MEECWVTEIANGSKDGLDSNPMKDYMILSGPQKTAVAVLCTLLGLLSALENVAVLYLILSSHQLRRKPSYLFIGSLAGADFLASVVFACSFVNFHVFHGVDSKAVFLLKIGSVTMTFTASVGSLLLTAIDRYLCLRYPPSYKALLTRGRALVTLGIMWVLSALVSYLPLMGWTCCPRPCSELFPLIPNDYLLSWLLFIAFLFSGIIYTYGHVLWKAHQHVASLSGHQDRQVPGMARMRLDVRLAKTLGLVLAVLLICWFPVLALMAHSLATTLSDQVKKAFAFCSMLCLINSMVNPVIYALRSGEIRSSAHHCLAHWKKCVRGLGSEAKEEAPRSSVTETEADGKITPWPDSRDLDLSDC

The target in test [3] is T1, Cannabinoid receptor 2. The experiment in a line: Agonist activity at CB2R (unknown origin) CHO cells stably expressing Galpha16 assessed as increase in intracellular calcium level by microplate reader based assay relative to CP55940. The format is functional, cell-based.
In test [4] the test system is CHO. The experiment in a line: Selectivity index, ratio of EC50 for CB1R (unknown origin) CHO cells stably expressing Galpha16 to EC50 for CB2R (unknown origin) CHO cells stably expressing Galpha16. The format is cell-based. The note with it: Homo sapiens.

Usually Emax stands for the greatest response seen or fitted, relative to the assay's reference.

Cannabinoid receptor 1, sequence (P21554 whole entry): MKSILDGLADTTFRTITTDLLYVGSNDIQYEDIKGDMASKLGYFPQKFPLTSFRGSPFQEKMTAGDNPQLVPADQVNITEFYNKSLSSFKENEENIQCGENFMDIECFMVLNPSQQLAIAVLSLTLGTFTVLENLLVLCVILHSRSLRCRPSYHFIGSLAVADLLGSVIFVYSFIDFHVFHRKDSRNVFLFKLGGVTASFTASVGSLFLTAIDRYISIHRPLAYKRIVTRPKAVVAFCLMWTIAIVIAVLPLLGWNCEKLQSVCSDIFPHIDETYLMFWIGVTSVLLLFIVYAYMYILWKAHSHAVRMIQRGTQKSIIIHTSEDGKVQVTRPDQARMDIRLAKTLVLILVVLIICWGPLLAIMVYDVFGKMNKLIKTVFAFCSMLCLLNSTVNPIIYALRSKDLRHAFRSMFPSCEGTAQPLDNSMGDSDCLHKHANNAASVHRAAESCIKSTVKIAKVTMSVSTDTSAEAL

For the compound `CCCCN1C(=O)/C(=C/NC(C)C)C(=O)c2cccc(C)c21`, the EC50 in test [1] and in test [2] (read-out: EC50) was above 10 µM throughout.
Consider `O=C(NCC1CCOCC1)c1cnc(Nc2ccc(Cl)cc2Cl)nc1C(F)(F)F` [GW842166X], for which the EC50 in test [1] was above 10 µM; in test [2] (read-out: EC50), 0.437 µM. Besides, the Emax in test [3] is 91.6%. Also, in test [4], the Ratio EC50 was above 22.9.
As for `CCCCN1C(=O)/C(=C/NCCC)C(=O)c2cccc(C)c21`, the EC50 in test [1] and in test [2] (read-out: EC50) was above 10 µM in each case.
For the compound `CCCCCN1C(=O)/C(=C/NC2CCCCC2)C(=O)c2ccccc21`, the EC50 in test [1] was above 10 µM; in test [2] (read-out: EC50), 0.472 µM. Further, the Emax in test [3] worked out at 101%. In addition, the Ratio EC50 in test [4] is above 21.2.
Consider `CCCCN1C(=O)/C(=C/NN2CCOCC2)C(=O)c2cccc(C)c21`, for which the EC50 was above 10 µM in test [1] and 0.477 µM in test [2] (read-out: EC50). In test [3], the Emax came out at 78.7%. Besides, the Ratio EC50 in test [4] was above 21.
Take `CCCCN1C(=O)/C(=C/NC2CCCCC2)C(=O)c2cccc(Cl)c21`: the EC50 in test [1] and in test [2] (read-out: EC50) was above 10 µM in each case.
On to `CCCCN1C(=O)/C(=C/NC(C)C(C)C)C(=O)c2cccc(C)c21` (stereo not given), for which the figures for the EC50 in test [1], in test [2] (read-out: EC50) and in test [2] (read-out: pEC50 (converted)) were above 10 µM, 0.0827 µM and 0.083 µM, respectively. For the same compound, the maximal response (Emax) in test [3] was determined as 120%. In addition, in test [4], the Ratio EC50 was above 121.
For `C=CCCN1C(=O)/C(=C/NC2CCCCC2)C(=O)c2cccc(C)c21`, the EC50 in test [1] was above 10 µM; in test [2] (read-out: EC50) it was 0.749 µM. In test [3], the maximum response (Emax) is 135%. Further, the Ratio EC50 in test [4] is above 13.4.
The matching figures for `CCCCN1C(=O)/C(=C/NC(C)CCC)C(=O)c2cccc(C)c21` (stereo not given): above 10 µM, 0.116 µM, 53.6% and above 86.2.
For `CCCCN1C(=O)/C(=C/NC2CC2)C(=O)c2cccc(C)c21` the same measures were above 10 µM, 0.503 µM, 81.8% and above 19.9.
The matching figures for `CCCCCN1C(=O)/C(=C/NC2CCCCC2)C(=O)c2cccc(C)c21`: above 10 µM, 0.32 µM, 70.3% and above 31.3.
Regarding `Cc1cccc2c1N(CC1CC1)C(=O)/C(=C/NC(C)(C)C)C2=O`, the EC50 in test [1] was above 10 µM; in test [2] (read-out: EC50) it was 0.104 µM. Further, in test [3], the Emax amounted to 140%. In addition, the Ratio EC50 in test [4] was above 96.2.
The matching figures for `CCCCN1C(=O)/C(=C/NC2CCCCC2)C(=O)c2ccccc21`: above 10 µM, 1.58 µM, 185% and above 6.33.
On to `CCCCCN1C(=O)/C(=C/NC2CCCCC2)C(=O)c2cccc(OC)c21`, for which the EC50 in test [1] and in test [2] (read-out: EC50) was above 10 µM each time.
As to `CCCCN1C(=O)/C(=C/NCC2CC2)C(=O)c2cccc(C)c21`, the EC50 was above 10 µM in test [1] and 0.127 µM in test [2] (read-out: EC50). Further, in test [3], the Emax turned out to be 43.4%. In addition, in test [4], the Ratio EC50 was above 78.7.
As to `CCCCN1C(=O)/C(=C/Nc2ccc(F)cc2)C(=O)c2cccc(C)c21`, the EC50 in test [1] and in test [2] (read-out: EC50) was above 10 µM throughout.
Take `CCCCN1C(=O)/C(=C/NCc2cccnc2)C(=O)c2cccc(C)c21`: the EC50 in test [1] and in test [2] (read-out: EC50) was above 10 µM each time.
Consider `CCCCN1C(=O)/C(=C/NCc2ccc(F)cc2)C(=O)c2cccc(C)c21`, for which the EC50 in test [1] and in test [2] (read-out: EC50) was above 10 µM in each case.
For the compound `CCCCCN1C(=O)/C(=C/NC2CCCCC2)C(=O)c2c(OC)cccc21`, the EC50 in test [1] and in test [2] (read-out: EC50) was above 10 µM each time.
Take `CCCCN1C(=O)/C(=C/N[C@H]2CC[C@H](O)CC2)C(=O)c2cccc(C)c21`: the EC50 in test [1] and in test [2] (read-out: EC50) was above 10 µM in each case.
For the compound `CCCCCN1C(=O)/C(=C/NC2CCCCC2)C(=O)c2cccc(CC)c21`, the EC50 in test [1] and in test [2] (read-out: EC50) was above 10 µM each time.

The values above are taken from ChEMBL document CHEMBL3588836, “Development of Quinoline-2,4(1H,3H)-diones as Potent and Selective Ligands of the Cannabinoid Type 2 Receptor” (J Med Chem, 2015).
